In US20120059056A1, “CARBONATE DERIVATIVES AS SKIN CARE” (EASTMAN CHEMICAL COMPANY, priority 2010, published 2012):

How the values were obtained:
[1] = Similar reaction run in the absence of enzyme (toluene / pH 7 buffer); type: physicochemical; conditions: for hydrolysis in the absence of enzyme: after 3 days; for hydrolysis in the absence of the enzyme: toluene / aqueous pH 7 buffer, time not stated
Procedure: Resveratrol tris(methyl carbonate) (100 mg; 0.249 mmol) was dissolved in 2 mL of toluene. […]
Hydroxytyrosol tris(methyl carbonate) (3, R=Me, 100 mg; 0.305 mmol) was dissolved in 2 mL of toluene. […]

[2] = Solubility in solvents; type: physicochemical
[3] = molecular target: Novozym 435 (immobilized Candida Antarctica lipase B) (Moesziomyces antarcticus, UniProt P41365); assay: Enzymatic hydrolysis with Novozym 435 in toluene / pH 7 buffer, HPLC analysis; conditions: for enzymatic hydrolysis: lipase, biphasic mixture of toluene and aqueous pH 7 buffer, time not stated
Procedure: Resveratrol tris(methyl carbonate) (100 mg; 0.249 mmol) was dissolved in 2 mL of toluene. 2 mL of pH 7 buffer was added followed by 100 mg of Novozym 435 (immobilized Candida Antarctica lipase B).
2 mL of pH 7 buffer was added followed by 100 mg of Novozym 435 (immobilized Candida Antarctica lipase B).
Resveratrol tripalmitate (100 mg; 0.11 mmol) was dissolved in 2 mL of toluene. 2 mL of pH 7 buffer was added followed by 100 mg of Novozym 435 (immobilized Candida Antarctica lipase B).
1 mL of pH 7 buffer was added followed by 100 mg of Novozym 435 (immobilized Candida Antarctica lipase B).
Hydroxytyrosol tris(methyl carbonate) (3, R=Me, 100 mg; 0.305 mmol) was dissolved in 2 mL of toluene. 2 mL of pH 7 buffer was added followed by 100 mg of Novozym 435 (immobilized Candida Antarctica lipase B).
Hydroxytyrosol trihexanoate containing 1.9% hydroxytyrosol by HPLC analysis (100 mg; 0.22 mmol) was dissolved in 2 mL of toluene. 2 mL of pH 7 buffer was added followed by 100 mg of Novozym 435 (immobilized Candida Antarctica lipase B).

[4] = 48 h, ambient temperature (trihexanoate contained 1.9% hydroxytyrosol at start)
[5] = 24 h, ambient temperature, equal volumes of both layers
[6] = 3 days, ambient temperature, toluene/pH 7 buffer
[7] = 1 day, ambient temperature, top layer only
[8] = 22 h, ambient temperature, toluene/pH 7 buffer, equal volumes of both layers

Novozym 435 (immobilized Candida Antarctica lipase B), sequence (P41365 26-342): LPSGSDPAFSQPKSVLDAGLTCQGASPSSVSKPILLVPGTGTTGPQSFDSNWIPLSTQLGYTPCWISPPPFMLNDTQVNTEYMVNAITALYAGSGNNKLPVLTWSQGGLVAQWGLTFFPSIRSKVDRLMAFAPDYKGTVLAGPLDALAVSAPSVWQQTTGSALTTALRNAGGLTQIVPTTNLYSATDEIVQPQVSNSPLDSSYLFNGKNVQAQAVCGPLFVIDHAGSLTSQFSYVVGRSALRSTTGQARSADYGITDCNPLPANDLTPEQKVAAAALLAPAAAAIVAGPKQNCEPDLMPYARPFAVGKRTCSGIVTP

Molecule: 4-Hydroxybenzyl Alcohol bis(butyl carbonate)
- hydrolysis in the absence of enzyme ([1]; toluene/pH 7 buffer): no detectable hydrolysis

Molecule: OCc1ccc(O)cc1 [4-hydroxybenzyl alcohol, 4-Hydroxybenzyl alcohol]
- solubility in toluene and water [2]: insolubility in both toluene and water

Molecule: CCCCCC(=O)OCCc1ccc(OC(=O)CCCCC)c(OC(=O)CCCCC)c1 [Hydroxytyrosol trihexanoate, Hydroxytyrosol Trihexanoate, reference compound]
- 3,4-di(hexanoyl)phenylethanol by HPLC analysis ([3]; 48 h, ambient temperature): 18.7%
- unchanged starting tris(methyl carbonate) or trihexanoate by HPLC analysis ([3]; 48 h, ambient temperature): 72.3%
- hydroxytyrosol by HPLC analysis [3, 4]: 2.5%

Molecule: COC(=O)OCCc1ccc(OC(=O)OC)c(OC(=O)OC)c1 [Hydroxytyrosol tris(methyl carbonate)]
- hydroxytyrosol by HPLC analysis [3, 5]: 74%
- mono- and di-carbonates by HPLC analysis [3, 5]: 1.5%
- unchanged hydroxytyrosol tris(methyl carbonate) by HPLC analysis [3, 5]: 17%
- mono- and di-carbonates by HPLC analysis ([3]; 48 h, ambient temperature): 5%
- unchanged starting tris(methyl carbonate) or trihexanoate by HPLC analysis ([3]; 48 h, ambient temperature): 3%
- hydroxytyrosol by HPLC analysis [3, 4]: 92%
- hydrolysis to hydroxytyrosol in the absence of enzyme ([1]; after 2 days, toluene/pH 7 buffer): no detectable hydrolysis to hydroxytyrosol

Molecule: CCCCCCCCCCCCCCCC(=O)Oc1ccc(C=Cc2cc(OC(=O)CCCCCCCCCCCCCCC)cc(OC(=O)CCCCCCCCCCCCCCC)c2)cc1 [Resveratrol tripalmitate, Resveratrol Tripalmitate, reference compound]
- extent of enzymatic hydrolysis [3, 6]: minimal hydrolysis
- unchanged starting tris(alkyl carbonate) or tripalmitate by HPLC analysis [3, 6]: 89%
- enzymatic hydrolysis [3]: minimal hydrolysis

Molecule: CCCCOC(=O)Oc1ccc(/C=C/c2cc(OC(=O)OCCCC)cc(OC(=O)OCCCC)c2)cc1 [Resveratrol tris(butyl carbonate)]
- resveratrol bis(butyl carbonate) by HPLC analysis [3, 7]: 41%
- resveratrol tris(butyl carbonate) remaining by HPLC analysis [3, 7]: 59%
- resveratrol bis/di(alkyl carbonate) or dipalmitate by HPLC analysis [3, 6]: 41%
- resveratrol by HPLC analysis [3, 6]: 35%
- resveratrol mono(alkyl carbonate) by HPLC analysis [3, 6]: 5%
- unchanged starting tris(alkyl carbonate) or tripalmitate by HPLC analysis [3, 6]: 19%
- enzymatic hydrolysis [3]: undergo hydrolysis of the carbonate to afford dicarbonates, monocarbonates, and the parent triphenol
- hydrolysis in the absence of the enzyme [1]: no observed hydrolysis

Molecule: COC(=O)Oc1ccc(/C=C/c2cc(OC(=O)OC)cc(OC(=O)OC)c2)cc1 [Resveratrol tris(methyl carbonate)]
- resveratrol bis(methyl carbonate) by HPLC analysis [3, 8]: 15.8%
- resveratrol by HPLC analysis [3, 8]: 23.75%
- resveratrol mono(methyl carbonate) by HPLC analysis [3, 8]: 52.9%
- resveratrol tris(methyl carbonate) remaining by HPLC analysis [3, 8]: 7.0%
- resveratrol bis/di(alkyl carbonate) or dipalmitate by HPLC analysis [3, 6]: 0.6%
- resveratrol by HPLC analysis [3, 6]: 63.8%
- resveratrol mono(alkyl carbonate) by HPLC analysis [3, 6]: 35.1%
- unchanged starting tris(alkyl carbonate) or tripalmitate by HPLC analysis [3, 6]: no detectable
- enzymatic hydrolysis [3]: undergo hydrolysis of the carbonate to afford dicarbonates, monocarbonates, and the parent triphenol
- hydrolysis in the absence of enzyme ([1]; toluene/pH 7 buffer): no detectable hydrolysis
- hydrolysis in the absence of the enzyme [1]: no observed hydrolysis
